The record followed here is patent US11377418B2, “Compounds and methods for treating influenza” (Macau University of Science and Technology, priority 2020, dated 2022).

Entries after “also recorded” stand apart in the source; their conditions may differ. Where two headings read alike, the source gives them in different places. Bounds are passed on as bounds.

Assay [1] relates to influenza A H1N1 (A/PR/8/34 virus). As to the kind of experiment: cytopathic effect (CPE) inhibition assay in MDCK cells. The class given is cell-based. A general note: Damage to the host cells serves as the signal in cytopathic effect assays.
The subject of assay [2] is NF-κB activation. The assay can be described thus: NF-κB-driven luciferase reporter assay in TNF-α-induced HEK293 cells. The class given is cell-based, Human. The note with it: luciferase activity, 20 ng/mL TNF-α, compound 100, 50, 25 or 12.5 μM, 24 h, FIGS. 1 to 4. For orientation: Reporter assays use an easily measured gene product as a stand-in for the process of interest.

Assay [3] concerns influenza virus. The assay can be described thus: NF-κB signalling inhibition, effect on influenza virus titers (in vitro and in vivo).

The term IC50 denotes the concentration at which inhibition is half-maximal. Consider `CC(=O)OC[C@H](Cc1ccc(F)cc1)NC(=O)[C@H](Cc1ccccc1)NC(=O)c1ccc(F)cc1` [Compound 7, (S)-2-((S)-2-(4-fluorobenzamido)-3-phenylpropanamido)-3-(4-fluorophenyl)propyl acetate], for which the 50% inhibitory concentration (IC50) is 13.5 µM in assay [1] and below 14.3 µM in assay [1] (Influenza A virus, MDCK, 48 h). In the case of `O=C(N[C@@H](Cc1ccc(F)cc1)C(=O)N[C@H](CO)Cc1ccc(F)cc1)c1ccccc1` [Compound 14, N—((S)-3-(4-fluorophenyl)-1-(((S)-1-(4-fluorophenyl)-3-hydroxypropan-2-yl)amino)-1-oxopropan-2-yl)benzamide], the half-inhibitory concentration (IC50) in assay [1] (Influenza A virus, MDCK, 48 h) came out at 19.7 µM. Besides, in assay [2], the “inhibition towards NF-κB activation (in words)” value is on record as “strongest inhibition effect; also recorded: strong inhibitory effect”. Turning to `CC(=O)OC[C@H](Cc1ccc(F)cc1)NC(=O)[C@H](Cc1ccccc1)NC(=O)c1ccccc1` [Compound 4, (S)-2-((S)-2-benzamido-3-phenylpropanamido)-3-(4-fluorophenyl)propyl acetate], the 50% inhibitory concentration (IC50) in assay [1] (Influenza A virus, MDCK, 48 h) was found to be 29.6 µM. Turning to `O=C(N[C@@H](Cc1ccc(F)cc1)C(=O)N[C@H](CO)Cc1ccccc1)c1ccccc1` [Compound 10, N—((S)-3-(4-fluorophenyl)-1-(((S)-1-hydroxy-3-phenylpropan-2-yl)amino)-1-oxopropan-2-yl)benzamide], the concentration for half-maximal inhibition (IC50) in assay [1] is 14.3 µM; in assay [1] (Influenza A virus, MDCK, 48 h) it was below 14.3 µM. In addition, the “anti-influenza virus effect (in words)” value in assay [1] (CPE inhibition, MDCK cells, A/PR/8/34 (H1N1)) was “potent inhibitory effect”. Besides, in assay [2], the “inhibition towards NF-κB activation (in words)” value is listed as “potent inhibitory effect; also recorded: strong inhibitory effect; also recorded: excellent inhibitory effects”. Take `CC(C)(C)c1ccc(S(=O)(=O)/C=C/C#N)cc1` [Compound 11-7085]: the “influenza virus titers (in words)” value in assay [3] is on record as “dramatic reduction of influenza virus titers”. Consider `O=C(N[C@@H](Cc1ccccc1)C(=O)N[C@H](CO)Cc1ccc(F)cc1)c1ccc(F)cc1` [Compound 15, 4-fluoro-N—((S)-1-(((S)-1-(4-fluorophenyl)-3-hydroxypropan-2-yl)amino)-1-oxo-3-phenylpropan-2-yl)benzamide], for which the IC50 in assay [1] (Influenza A virus, MDCK, 48 h) is 38.7 µM. The same measure, in the same setting: for `O=C(N[C@@H](Cc1ccccc1)C(=O)N[C@H](CO)Cc1ccccc1)c1ccc(F)cc1` [Compound 11, 4-fluoro-N—((S)-1-(((S)-1-hydroxy-3-phenylpropan-2-yl)amino)-1-oxo-3-phenylpropan-2-yl)benzamide] the value was 47 µM; for `O=C(N[C@@H](Cc1ccccc1)C(=O)N[C@H](CO)Cc1ccc(F)cc1)c1ccccc1` [Compound 12, N—((S)-1-(((S)-1-(4-fluorophenyl)-3-hydroxypropan-2-yl)amino)-1-oxo-3-phenylpropan-2-yl)benzamide], 17.4 µM.

Consider `O=C(N[C@@H](Cc1ccccc1)C(=O)N[C@H](CO)Cc1ccccc1)c1ccccc1` [Compound 9, N—((S)-1-(((S)-1-hydroxy-3-phenylpropan-2-yl)amino)-1-oxo-3-phenylpropan-2-yl)benzamide, reference compound], for which the 50% inhibitory concentration (IC50) in assay [1] (Influenza A virus, MDCK, 48 h) came out at 34 µM. Still for that read-out and setting: for `CC(=O)OC[C@H](Cc1ccccc1)NC(=O)[C@H](Cc1ccc(F)cc1)NC(=O)c1ccc(F)cc1` [Compound 5, (S)-2-((S)-2-(4-fluorobenzamido)-3-(4-fluorophenyl)propanamido)-3-phenylpropyl acetate] the value was 37.9 µM. As to `CC(=O)Oc1ccccc1C(=O)O` [acetylsalicyclic acid (ASA), acetylsalicyclic acid], the “influenza virus titers (in words)” value in assay [3] is on record as “dramatic reduction of influenza virus titers”.

In assay [1] (Influenza A virus, MDCK, 48 h), `CC(=O)OC[C@H](Cc1ccccc1)NC(=O)[C@H](Cc1ccccc1)NC(=O)c1ccc(F)cc1` [Compound 3, (S)-2-((S)-2-(4-fluorobenzamido)-3-phenylpropanamido)-3-phenylpropyl acetate] came in with an IC50 of 42.4 µM. On the same count and under the same terms, for `CC(=O)OC[C@H](Cc1ccccc1)NC(=O)[C@H](Cc1ccccc1)NC(=O)c1ccccc1` [Compound 1, (S)-2-((S)-2-benzamido-3-phenylpropanamido)-3-phenylpropyl acetate, reference compound] the value was 74.3 µM.

The compound `CC(=O)OC[C@H](Cc1ccc(F)cc1)NC(=O)[C@H](Cc1ccc(F)cc1)NC(=O)c1ccccc1` [Compound 6, (S)-2-((S)-2-benzamido-3-(4-fluorophenyl)propanamido)-3-(4-fluorophenyl)propyl acetate] came in with an IC50 in assay [1] (Influenza A virus, MDCK, 48 h) of 19.2 µM. Also, the “inhibition towards NF-κB activation (in words)” value in assay [2] is “strongest inhibition effect; also recorded: strong inhibitory effect”.

On to `O=C(N[C@@H](Cc1ccc(F)cc1)C(=O)N[C@H](CO)Cc1ccccc1)c1ccc(F)cc1` [Compound 13], for which the IC50 in assay [1] is 10.5 µM; in assay [1] (Influenza A virus, MDCK, 48 h), below 14.3 µM.
